Format in all cases: functional
Assay [1] concerns Bacillus cereus. In words: Antibacterial activity against Bacillus cereus ATCC 7064 after 18 hrs by broth microdilution assay. The note with it: ATCC 7064, 18 h. On the technique in general: Broth dilution looks for growth in wells or tubes with falling amounts of substance.
Assay [2] concerns Micrococcus luteus. Nature of the assay: Antibacterial activity against Micrococcus luteus ATCC 9345 after 18 hrs by broth microdilution assay. Conditions: ATCC 9345, 18 h.
Assay [3] relates to Pichia kudriavzevii. In words: Antifungal activity against Candida krusei ATCC 6258 after 18 hrs by broth microdilution assay. Conditions: ATCC 6258, 18 h.
The test system of assay [4] is Staphylococcus aureus. Nature of the assay: Antibacterial activity against Staphylococcus aureus ATCC 6538 after 18 hrs by broth microdilution assay. The note with it: ATCC 6538, 18 h.
Assay [5] has as its system Candida parapsilosis. In words: Antifungal activity against Candida parapsilosis ATCC 22019 after 18 hrs by broth microdilution assay. The note with it: Lodderomyces parapsilosis, ATCC 22019, 18 h.
Assay [6] concerns Staphylococcus aureus. Nature of the assay: Antibacterial activity against Staphylococcus aureus ATCC 25923 after 18 hrs by broth microdilution assay. Conditions: ATCC 25923, 18 h.
For assay [7], the system named is Candida albicans. In words: Antifungal activity against Candida albicans ATCC 14053 after 18 hrs by broth microdilution assay. Conditions: ATCC 14053, 18 h.
Assay [8] has as its system Escherichia coli. Nature of the assay: Antibacterial activity against Escherichia coli ATCC 4230 after 18 hrs by broth microdilution assay. The note with it: ATCC 4230, 18 h.

In general, MIC refers to the least concentration at which growth counts as inhibited. High values mean weaker potency, low ones greater potency.

≈ marks a conversion by molar mass, not a printed value.

Consider `CC1(C)S[C@@H]2[C@H](NC(=O)[C@H](N)c3ccccc3)C(=O)N2[C@H]1C(=O)O` [AMPICILLIN], for which the MIC was 5 mg/L (≈ 14.3 µM) in assay [1] and 10 mg/L (≈ 28.6 µM) in assay [2].
In the case of `OC(Cn1cncn1)(Cn1cncn1)c1ccc(F)cc1F` [FLUCONAZOLE], 10 mg/L (≈ 32.7 µM) was the least that counted as inhibitory in assay [3] (MIC).
`Cc1cc(/C=N/n2cc(C(=O)c3ccccc3)c(-c3ccccc3)nc2=O)c(O)c(/C=N/n2cc(C(=O)c3ccccc3)c(-c3ccccc3)nc2=O)c1`: the minimal inhibitory concentration (MIC) in assay [4] was found to be 20 mg/L (≈ 28.1 µM); in assay [5], 40 mg/L (≈ 56.3 µM); in assay [6], 20 mg/L (≈ 28.1 µM); in assay [7] it was 40 mg/L (≈ 56.3 µM); in assay [1], 80 mg/L (≈ 113 µM); in assay [8] it was 40 mg/L (≈ 56.3 µM). The minimum inhibitory concentration (MIC) in assay [3] turned out to be 40 mg/L (≈ 56.3 µM); in assay [2], 20 mg/L (≈ 28.1 µM).

Values taken from ChEMBL document CHEMBL1157874, “Synthesis, spectroscopic and biological studies on the new symmetric Schiff base derived from 2,6-diformyl-4-methylphenol with N-aminopyrimidine” (2010).
